In patent EP4741392A1, “1H-PYRAZOLO[4,3-C]PYRIDINE COMPOUND, AND COMPOSITION THEREOF AND USE THEREOF” (Shenzhen TargetRx Co., Ltd., priority 2023, dated 2025):
Read-outs that look alike come from different tables or passages of the source.

Legend:
NIH/3T3 BTK C481S cells = assay: Phosphor-BTK(Y223) assay, adherent cells; format: cell-based; settings: read-out: NIH/3T3 BTK-C481S pBTK
Summary of the method: (§1)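 NIH/3T3 cells expressing WT or C481S BTK were pretreated with compound for 0.5 h at 37 °C, then stimulated with 1 mM Na3VO4 (final) for 2 h. Lysates were assayed by HTRF for p-BTK Y223 using the 665/620 nm ratio. IC50 was obtained by nonlinear fit of % inhibition versus 0.5% DMSO control.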

NIH/3T3 BTK WT cells = assay: Phosphor-BTK(Y223) assay, adherent cells; format: cell-based; settings: read-out: NIH/3T3 BTK-WT pBTK
Summary of the method: as §1

BTK C481S = molecular target: T1, BTK C481S (Homo sapiens, UniProt Q06187, C481S); assay: Kinase activity inhibition assay (HTRF TK Kit); format: biochemical
T1 construct: purchased Carna 08-547
Summary of the method: (§2)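 Cmpd + substrate/ATP + kinase, assembled on ice, shaken 30 s, RT reaction; detection mix (SA-XL665 + TK Ab-cryptate) 1 h RT; 665/620 ratio. Controls: no-kinase blank, kinase + 1% DMSO. IC50 via 4-parameter logistic fit of % inhibition vs log[cmpd].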

BTK kinase = molecular target: T2, BTK kinase (Homo sapiens, UniProt Q06187); assay: Kinase activity inhibition assay (HTRF TK Kit); format: biochemical
T2 construct: purchased Invitrogen PV3587
Summary of the method: as §2

BTK T474I = molecular target: T3, BTK T474I (Homo sapiens, UniProt Q06187, T474I); assay: Kinase activity inhibition assay (HTRF TK Kit); format: biochemical
T3 construct: purchased SignalChem B10-12HH
Summary of the method: as §2

[1] = Mus musculus, NIH3T3, phosphorylated BTK Y223, NIH/3T3 BTK C481S cells
[2] = Mus musculus, NIH3T3, phosphorylated BTK Y223, NIH/3T3 BTK WT cells

T2 sequence (Q06187 whole entry): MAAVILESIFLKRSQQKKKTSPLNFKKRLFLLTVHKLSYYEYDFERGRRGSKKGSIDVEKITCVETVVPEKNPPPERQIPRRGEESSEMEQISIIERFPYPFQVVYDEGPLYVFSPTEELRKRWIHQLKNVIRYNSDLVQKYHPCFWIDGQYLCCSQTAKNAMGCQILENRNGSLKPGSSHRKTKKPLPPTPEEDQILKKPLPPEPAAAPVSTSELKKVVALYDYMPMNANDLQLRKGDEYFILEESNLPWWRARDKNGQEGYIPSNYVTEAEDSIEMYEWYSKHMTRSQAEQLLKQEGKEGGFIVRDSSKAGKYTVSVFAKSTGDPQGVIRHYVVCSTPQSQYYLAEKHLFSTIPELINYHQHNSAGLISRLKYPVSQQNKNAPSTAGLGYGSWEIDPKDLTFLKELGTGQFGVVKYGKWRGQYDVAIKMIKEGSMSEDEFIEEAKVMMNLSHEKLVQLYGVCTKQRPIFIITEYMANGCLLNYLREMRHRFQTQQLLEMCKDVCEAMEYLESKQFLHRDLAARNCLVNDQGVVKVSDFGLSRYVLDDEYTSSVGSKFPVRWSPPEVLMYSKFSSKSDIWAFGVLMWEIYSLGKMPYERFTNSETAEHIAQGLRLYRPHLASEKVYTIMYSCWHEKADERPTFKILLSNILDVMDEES
T1 sequence (Q06187 whole entry C481S): as the sequence (Q06187 whole entry) above, with C481S counted along it
T3 sequence (Q06187 whole entry T474I): as the sequence (Q06187 whole entry) above, with T474I counted along it

Work on `COc1ccc(F)cc1C(=O)NCc1ccc(-c2nc(C(C)C(F)(F)F)c(-c3ccn(C)n3)c3[nH]nc(N)c23)cc1` (single isomer, unassigned) [Example 6-2, N-(4-(3-amino-7-(1-methyl-1H-pyrazol-3-yl)-6-(1,1,1-trifluoropropan-2-yl)-1H-pyrazolo[4,3-c]pyridin-4-yl)benzyl)-5-fluoro-2-methoxybenzamide] yielded an IC50 (NIH/3T3 BTK C481S cells; phosphorylated BTK Y223, NIH/3T3 BTK C481S cells) of 10 to 50 nM, an IC50 (NIH/3T3 BTK WT cells; phosphorylated BTK Y223, NIH/3T3 BTK WT cells) of at most 5 nM and an IC50 (BTK C481S) of 1 to 5 nM. It also gave an IC50 (BTK kinase) of 1 to 5 nM and an IC50 (BTK T474I) of 5 to 50 nM.
`COc1ccc(F)cc1C(=O)NCc1ccc(-c2ncc(-c3ccn(CC(=O)N(C)C)n3)c3[nH]nc(N)c23)cc1` [Example 25, N-(4-(3-amino-7-(1-(2-(dimethylamino)-2-oxoethyl)-1H-pyrazol-3-yl)-1H-pyrazolo[4,3-c]pyridin-4-yl)benzyl)-5-fluoro-2-methoxybenzamide] showed an IC50 (NIH/3T3 BTK C481S cells; [1]) of 10 to 50 nM, an IC50 (NIH/3T3 BTK WT cells; [2]) of 10 to 50 nM and an IC50 (BTK C481S) of 1 to 5 nM. The IC50 (BTK kinase) was 1 to 5 nM and the IC50 (BTK T474I) was 50 to 500 nM.
For `COc1ccc(F)cc1C(=O)NCc1ccc(-c2ncc(-c3nc4ccccc4s3)c3[nH]nc(N)c23)cc1` [Example 99, N-(4-(3-amino-7-(benzo[d]thiazol-2-yl)-1H-pyrazolo[4,3-c]pyridin-4-yl)benzyl)-5-fluoro-2-methoxybenzamide], the IC50 (NIH/3T3 BTK C481S cells; [1]) was 5 to 10 nM, the IC50 (NIH/3T3 BTK WT cells; [2]) was at most 5 nM and the IC50 (BTK C481S) was 5 to 50 nM. It also gave an IC50 (BTK kinase) of 5 to 50 nM and an IC50 (BTK T474I) of 50 to 500 nM.
Work on `COc1ccc(F)cc1C(=O)NCc1ccc(-c2ncc(-c3ccc(C(F)F)cn3)c3[nH]nc(N)c23)cc1` [Example 48, N-(4-(3-amino-7-(5-(difluoromethyl)pyridin-2-yl)-1H-pyrazolo[4,3-c]pyridin-4-yl)benzyl)-5-fluoro-2-methoxybenzamide] yielded an IC50 (NIH/3T3 BTK C481S cells; [1]) of at most 5 nM, an IC50 (NIH/3T3 BTK WT cells; [2]) of at most 5 nM and an IC50 (BTK C481S) of 1 to 5 nM. The IC50 (BTK kinase) was 1 to 5 nM and the IC50 (BTK T474I) was 5 to 50 nM.
`COc1ccc(F)cc1C(=O)NCc1ccc(-c2ncc(-c3ccc(F)cn3)c3[nH]nc(N)c23)cc1` [Example 21, N-(4-(3-amino-7-(5-fluoropyridin-2-yl)-1H-pyrazolo[4,3-c]pyridin-4-yl)benzyl)-5-fluoro-2-methoxybenzamide] was tested, and the IC50 (NIH/3T3 BTK C481S cells; [1]) was at most 5 nM, the IC50 (NIH/3T3 BTK WT cells; [2]) was at most 5 nM and the IC50 (BTK C481S) was 5 to 50 nM. It also gave an IC50 (BTK kinase) of 1 to 5 nM and an IC50 (BTK T474I) of 50 to 500 nM.
Compound `COCCOc1ccc(-c2cnc(-c3ccc(CNC(=O)c4cc(F)ccc4OC)cc3)c3c(N)n[nH]c23)nc1` [Example 59, N-(4-(3-amino-7-(5-(2-methoxyethoxy)pyridin-2-yl)-1H-pyrazolo[4,3-c]pyridin-4-yl)benzyl)-5-fluoro-2-methoxybenzamide] has an IC50 (NIH/3T3 BTK C481S cells; [1]) of at most 5 nM, an IC50 (NIH/3T3 BTK WT cells; [2]) of at most 5 nM and an IC50 (BTK C481S) of at most 1 nM. The IC50 (BTK kinase) was at most 1 nM and the IC50 (BTK T474I) was 5 to 50 nM.
`COc1ccc(F)cc1C(=O)NCc1ccc(-c2ncc(-c3cn(C)cn3)c3[nH]nc(N)c23)cc1` [Example 30, N-(4-(3-amino-7-(1-methyl-1H-imidazol-4-yl)-1H-pyrazolo[4,3-c]pyridin-4-yl)benzyl)-5-fluoro-2-methoxybenzamide] showed an IC50 (NIH/3T3 BTK C481S cells; [1]) of 5 to 10 nM, an IC50 (NIH/3T3 BTK WT cells; [2]) of at most 5 nM and an IC50 (BTK C481S) of 1 to 5 nM. The IC50 (BTK kinase) was 1 to 5 nM and the IC50 (BTK T474I) was 50 to 500 nM.
In the case of `CCN1CCc2nc(-c3cnc(-c4ccc(CNC(=O)c5cc(F)ccc5OC)cc4)c4c(N)n[nH]c34)sc2C1` [Example 101, N-(4-(3-amino-7-(5-ethyl-4,5,6,7-tetrahydrothiazolo[5,4-c]pyridin-2-yl)-1H-pyrazolo[4,3-c]pyridin-4-yl)benzyl)-5-fluoro-2-methoxybenzamide], the IC50 (NIH/3T3 BTK C481S cells; [1]) is reported as at most 5 nM, the IC50 (NIH/3T3 BTK WT cells; [2]) is reported as at most 5 nM and the IC50 (BTK C481S) is reported as 1 to 5 nM. For the same compound, the IC50 (BTK kinase) was 1 to 5 nM and the IC50 (BTK T474I) was 5 to 50 nM.
`C=CC(=O)N1CCCC(c2cc3[nH]nc(N)c3c(-c3ccc(CNC(=O)c4cc(F)ccc4OC)cc3)n2)C1` (stereo not drawn) [Example 96, N-(4-(6-(1-acryloylpiperidin-3-yl)-3-amino-1H-pyrazolo[4,3-c]pyridin-4-yl)benzyl)-5-fluoro-2-methoxybenzamide] showed an IC50 (NIH/3T3 BTK C481S cells; [1]) of over 50 nM, an IC50 (NIH/3T3 BTK WT cells; [2]) of 10 to 50 nM and an IC50 (BTK C481S) of 1 to 5 nM. It also gave an IC50 (BTK kinase) of 1 to 5 nM and an IC50 (BTK T474I) of 5 to 50 nM.
